The values that follow come from BindingDB's records for doi:10.1021/jm00102a019 (Oregon State University, 1993).

In the assay the target is Delta-type opioid receptor (Cavia porcellus). In words: Tested for inhibitory effect on binding of [3H]DPDPE to opioid receptor delta in guinea pig cerebellum membranes.

In general, Ki refers to a dissociation constant, usually derived from enzyme kinetics or from competition with a known ligand. Low values mean a stronger hold on the target, high ones a looser hold on the target. `CC[C@H](C)[C@H](NC(=O)[C@H](CCCNC(=N)N)NC(=O)[C@H](CCCNC(=N)N)NC(=O)[C@H](CC(C)C)NC(=O)[C@H](Cc1ccccc1)NC(=O)CNC(=O)CNC(=O)[C@H](Cc1ccc(O)cc1)NCC1CC1)C(=O)N[C@@H](CCCNC(=N)N)C(=O)N1CCC[C@@H]1C(=O)N[C@@H](CCCCN)C(=O)O` registered a Ki of 558 nM.
Next, `C=CCN(CC=C)[C@@H](Cc1ccc(O)cc1)C(=O)NCC(=O)NCC(=O)N[C@@H](Cc1ccccc1)C(=O)N[C@@H](CC(C)C)C(=O)N[C@@H](CCCNC(=N)N)C(=O)N[C@@H](CCCNC(=N)N)C(=O)N[C@H](C(=O)N[C@@H](CCCNC(=N)N)C(=O)N1CCC[C@@H]1C(=O)N[C@@H](CCCCN)C(=O)O)[C@@H](C)CC`: 149 nM.
